The values that follow come from PMC7677930, “In Vitro and In Silico ADME-Tox Profiling and Safety Significance of Multifunctional Monoamine Oxidase Inhibitors Targeting Neurodegenerative Diseases” (ACS Chemical Neuroscience, 2020).

A short description of series [1]: metabolic stability, 2 h incubation with human liver microsomes, UPLC-MS. The format is in vitro ADME. From the text:
The metabolic stability of a compound is an important factor that determines its pharmacokinetics and its potential as a drug candidate. Drugs are being metabolized in a variety of tissues including lungs, kidneys, or intestinal walls, but the liver plays an essential role in this process.
Then, the UPLC/MS analyses were done by using a Waters ACQUITY TQD system with the TQ Detector (Waters, Milford, MA, USA). The in silico prediction of the most probable sites of metabolism was done by ADMET Predictor, ver. […]
7.4) at 37 °C in the presence of NADPH Regeneration System (Promega, Madison, WI, USA). […]
A general note: Liver microsomes are vesicles of endoplasmic reticulum, rich in cytochrome P450 enzymes.

Series [2] concerns Huh7 cells. As to the kind of experiment: MTT cell viability assay on Huh7. The format is cell-based, human. The conditions noted are these: for concentration at which compound began to elicit toxicity: Huh7, MTT, 24 h, 1-300 μM tested; for toxicity compared with ASS234: Huh7, MTT (Figure 5A). The protocol:
(§1) The human hepatoma cell line (Huh7) was purchased from the American Type Culture Collection (ATCC, Manassas, VA, USA). The generation and characterization of the immortalized mouse hepatocyte cell line WTIIB has been previously described.[24] Cell viability was measured by the quantitative colorimetric MTT (3-[4,5-dimethylthiazol-2-yl]-2,5 diphenyl tetrazolium bromide) assay as previously described, and triarylmethane dye (violet) assay following the protocol adapted from Feoktistova et al.[25] After the incubation period with the compounds, MTT reagent was added to each well at a final concentration of 0.5 mg/mL. The plate was placed in a humidified incubator at 37 °C with 5% CO2 and 95% air for 2 h. Then, the precipitated formazan was dissolved with dimethyl sulfoxide (DMSO) and the colorimetric determination of MTT was measured in the spectrophotometer at 540 nm wavelength. Nontreated cells were considered controls and were taken as 100% viability.
In general terms: Tetrazolium assays rely on reduction of a dye to a coloured formazan, in cell work by metabolically active cells.

In a further series the target is hS1R. The conditions noted are these: read-out: KihS1R; cited from earlier work.
Series [3] is described as follows: precipitation during incubation in MTS assay. In kind it is physicochemical. The conditions noted are these: 72 h. The protocol:
(A) Concentration–response on HEK-293 cells. (B) Concentration–response on HepG2 cells. Statistical significance was evaluated by one-way ANOVA, followed by Bonferroni’s comparison test (****p < 0.0001). DX, doxorubicin; CCCP, carbonyl cyanide 3-chlorophenyl […]. ASS234 precipitated at 100 μM during incubation.
(§2) Cytotoxicity and hepatotoxicity were estimated using the human embryonic kidney HEK-293 cell line (ATCC CRL-1573) and hepatoma HepG2 (ATCC HB-8065) cell line. The CellTiter 96 Aqueous Non-Radioactive Cell Proliferation Assay (MTS) was purchased from Promega (Madison, WI, USA) and performed according to the manufacturer’s protocol. […] The antiproliferative drug doxorubicin (DX) (1 μM) and mitochondrial toxin carbonyl cyanide 3-chlorophenyl-hydrazone (CCCP) (10 μM, only in hepatotoxicity assay) were used as positive controls (purchased from Sigma-Aldrich, St. Louis, MO, USA).

For series [4], the system named is Huh7 cells. In words: crystal violet cell viability assay on Huh7. The format is cell-based, human. The conditions noted are these: for concentration at which compound began to elicit toxicity: Huh7, crystal violet, 24 h, 1-300 μM tested; for toxicity compared with ASS234: Huh7, crystal violet (Figure 5C). As for the experimental part:
as §1
(§3) To perform the crystal violet assay, wells were washed twice in PBS and cells were fixed with 100 μL of crystal violet (Sigma-Aldrich, Madrid, Spain) solution at 0.2% prepared in ethanol. Plates were incubated for 20 min at room temperature in a bench rocker. Next, wells were washed four times with distilled water, and then the plate was inverted gently to remove any remaining liquid. The plate was dried at room temperature for at least 2 h and attached cells were resuspended in SDS 1% for 30 min in a bench rocker. The optical density was measured in the spectrophotometer at 540 nm wavelength. Nontreated cells were considered controls and were taken as 100% viability.

Another series has as its system MAO A. The conditions noted are these: Figure 1; cited from earlier work.
In the next series the test system is hBuChE. The conditions noted are these: cited from earlier work.
Series [5] relates to WTIIB cells. In words: crystal violet cell viability assay on WTIIB. In kind it is cell-based, mouse. The conditions noted are these: for concentration at which compound began to elicit toxicity: crystal violet, 24 h, 1-300 μM tested; for toxicity compared with ASS234: crystal violet (Figure 5D). The protocol:
as §1, §3

The test system of a further series is MAO B. The conditions noted are these: Figure 1; cited from earlier work.
For a further series, the system named is hAChE. The conditions noted are these: cited from earlier work.
The subject of series [6] is WTIIB cells. In words: MTT cell viability assay on WTIIB. The format is cell-based, mouse. The conditions noted are these: for concentration at which compound began to elicit toxicity: MTT, 24 h, 1-300 μM tested. The protocol:
as §1

For series [7], the target named is histamine H3 receptor (H3R). The conditions noted are these: cited from earlier work.
The next series concerns HepG2 cells. As to the kind of experiment: MTS cell viability assay on HepG2. The format is cell-based, human. The conditions noted are these: 72 h, tested at 1, 10, 50, 100 μM. As for the experimental part: as §2
The test system of series [8] is SH-SY5Y human neuroblastoma cells. Further details: method as in PMID 28861918. The conditions noted are these: cited from earlier work.
Another series has as its system HEK-293 cells. As to the kind of experiment: MTS cell viability assay on HEK-293. In kind it is cell-based, human. The conditions noted are these: HEK-293, MTS, 72 h; tested at 1, 10, 50, 100 μM. As for the experimental part:
as §2

By IC50 is commonly meant the concentration needed to halve the response being measured. With `C#CCN(C)Cc1cc2cc(OCCCC3CCN(Cc4ccccc4)CC3)ccc2n1C` [ASS234], the “parent compound detected after incubation with HLMs” value (shortened to “parent compound detected”) in series [1] is given as “the compound was not detected”. Further, the “concentration at which compound began to elicit toxicity” value with Huh7 cells [2], in the series with Huh7 cells [4], in the series on WTIIB cells [5] and in the series on WTIIB cells [6] was ≥ 30 µM throughout. For the same compound, at hS1R, the Ki was 3 nM. For the same compound, the “concentration at which compound precipitated during incubation” value in series [3] turned out to be 100 µM. Besides, the IC50 in the series on MAO A is 5 nM; in the series on hBuChE it was 1820 nM; with MAO B, 177 nM; in the series on hAChE, 810 nM.

Consider `C#CCNCc1cc2cc(OCc3ccccc3)ccc2[nH]1` [PF9601N, N-(2-Propynyl)-2-(5-Benzyloxy-Indolyl) Methylamine], for which the “parent compound detected” value in series [1] turned out to be 95%. In addition, the half-inhibitory concentration (IC50) is 1250 nM with MAO A and 22 nM in the series with MAO B.

Regarding `C#CCN(C)Cc1cc2cc(OCCCN3CCCCC3)ccc2n1C` [contilisant], the “parent compound detected” value in [1] was 97%. Also, the Ki in series [7] was 11 nM; at hS1R, 65 nM. Further, the “toxicity compared with ASS234” value in the series with Huh7 cells [2] (30 μM) was “less toxic than ASS234”; in the series with Huh7 cells [2] (300 μM), “more toxic than ASS234”; with Huh7 cells [4] (30 μM), “less toxic than ASS234”; with Huh7 cells [4] (300 μM), “more toxic than ASS234”; in the series with WTIIB cells [5] (100 μM) it was “less toxic than ASS234”; in the series on WTIIB cells [5] (300 μM), “more toxic than ASS234”. In the series on WTIIB cells [6] (300 μM, MTT (Figure 5B)), the “toxicity compared with ASS234” value is given as “more toxic than ASS234”. Moreover, the “concentration at which compound began to elicit toxicity” value was ≥ 30 µM in the series on Huh7 cells [2], ≥ 30 µM with Huh7 cells [4], 100 µM in the series with WTIIB cells [5] and 100 µM with WTIIB cells [6]. In addition, the “concentration range not affecting cell viability” value in the series with Huh7 cells [2] (Huh7, abstract, assay not specified (MTT / crystal violet)) is listed as “up to 30 μM”; in the series on HepG2 cells, “up to 50 μM”; in the series on HEK-293 cells it was “up to 10 μM”. Moreover, in series [8], the “effective concentration used in neuroprotection experiments” value was 0.3 to 3 µM. The IC50 was 1690 nM with hBuChE and 78 nM in the series with MAO B.

As to `C#CCN(C)[C@H](C)Cc1ccccc1` [selegiline, reference compound], the “fraction of compound metabolized by HLMs” value in series [1] was “about 54%”.
